Literature values in patent US20130109728A1, “BIOCIDE COMPOSITION” (TITAN CHEMICALS LIMITED, priority 2011, published 2013).

Assays:
[1] = not given; remark: listed apart in the source

For `O=c1[nH]sc2ccccc12` [BIT, 1,2-benzisothiazolin-3-one], the water solubility is given as “not very water soluble”.

For `Cn1sccc1=O` [MIT, 2-methylisothiazolin-3-one], the “freezing point of solutions in water” value ([1]; solutions of MIT in water) is listed as “about 0 °C”.

For `C[N+](C)(C)C.O=c1[nH]sc2ccccc12` [tetramethylammonium BIT, tetramethylammonium 1,2-benzisothiazolin-3-one], the “minimum freezing point of water solution” value ([1]; 59 wt % tetramethylammonium BIT (40 wt % calculated as BIT), after storage for 24 hours and seeding with solid tetramethylammonium BIT, reported in WO 02 14 293) is given as 3 °C.
